Read-outs that look alike come from different tables or passages of the source.
Key:
[1] = test system: orthotopic U87MG-luc human glioblastoma; assay: Efficacy in combination with temozolomide against orthotopic U87MG-luc human glioblastoma in mice (bioluminescence); format: in vivo; conditions: glioblastoma model, combination with TMZ
Protocol: An efficacy and comparison study between Compound 1 and abemaciclib, in combination with temozolomide (TMZ), against orthotopic U87MG-luc human glioblastoma in mice was conducted. In each study, TMZ was dosed PO at 6 mg/kg, QD×5, and either Compound 1 or abemaciclib was dosed PO at 100 mg/kg. Tumor growth was observed by bioluminescence. […] From a broad perspective, the significant differentiation between Compound 1 and abemaciclib in a brain disease model can be traced to their distinct molecular structures. Female Envigo Nude Mice (Hsd:Athymic Nude-Fox1^nu) were used in this study. They were 6-7 weeks old on Day 1 of the experiment. The animals were fed irradiated Harlan 2918.15 Rodent Diet and water ad libitum. Animals were housed in INNOVIVE® disposable ventilated caging with corn cob bedding inside BIOBUBBLE® Clean Rooms that provide H.E.P.A filtered air into the bubble environment at 100 complete air changes per hour. All treatments, body weight determinations, and tumor measurements were carried out in the bubble environment. […] An aliquot of the homogeneous cell suspension was diluted in a trypan blue solution and counted using a Luna automated cell counter. […] Following implantation, an aliquot of the remaining cells was diluted with a trypan blue solution and counted to determine the post-implantation cell viability. […]

P-gp = target: T1, P-gp (Homo sapiens, UniProt P08183); assay: P-gp substrate potential using MDR1-MDCK monolayers (bidirectional permeability +/- valspodar); format: in vitro ADME
T1 construct: expressed in transfected cells; host or cells: MDR1-MDCK (MDCK cells expressing MDR1)
T1 sequence (P08183 whole entry): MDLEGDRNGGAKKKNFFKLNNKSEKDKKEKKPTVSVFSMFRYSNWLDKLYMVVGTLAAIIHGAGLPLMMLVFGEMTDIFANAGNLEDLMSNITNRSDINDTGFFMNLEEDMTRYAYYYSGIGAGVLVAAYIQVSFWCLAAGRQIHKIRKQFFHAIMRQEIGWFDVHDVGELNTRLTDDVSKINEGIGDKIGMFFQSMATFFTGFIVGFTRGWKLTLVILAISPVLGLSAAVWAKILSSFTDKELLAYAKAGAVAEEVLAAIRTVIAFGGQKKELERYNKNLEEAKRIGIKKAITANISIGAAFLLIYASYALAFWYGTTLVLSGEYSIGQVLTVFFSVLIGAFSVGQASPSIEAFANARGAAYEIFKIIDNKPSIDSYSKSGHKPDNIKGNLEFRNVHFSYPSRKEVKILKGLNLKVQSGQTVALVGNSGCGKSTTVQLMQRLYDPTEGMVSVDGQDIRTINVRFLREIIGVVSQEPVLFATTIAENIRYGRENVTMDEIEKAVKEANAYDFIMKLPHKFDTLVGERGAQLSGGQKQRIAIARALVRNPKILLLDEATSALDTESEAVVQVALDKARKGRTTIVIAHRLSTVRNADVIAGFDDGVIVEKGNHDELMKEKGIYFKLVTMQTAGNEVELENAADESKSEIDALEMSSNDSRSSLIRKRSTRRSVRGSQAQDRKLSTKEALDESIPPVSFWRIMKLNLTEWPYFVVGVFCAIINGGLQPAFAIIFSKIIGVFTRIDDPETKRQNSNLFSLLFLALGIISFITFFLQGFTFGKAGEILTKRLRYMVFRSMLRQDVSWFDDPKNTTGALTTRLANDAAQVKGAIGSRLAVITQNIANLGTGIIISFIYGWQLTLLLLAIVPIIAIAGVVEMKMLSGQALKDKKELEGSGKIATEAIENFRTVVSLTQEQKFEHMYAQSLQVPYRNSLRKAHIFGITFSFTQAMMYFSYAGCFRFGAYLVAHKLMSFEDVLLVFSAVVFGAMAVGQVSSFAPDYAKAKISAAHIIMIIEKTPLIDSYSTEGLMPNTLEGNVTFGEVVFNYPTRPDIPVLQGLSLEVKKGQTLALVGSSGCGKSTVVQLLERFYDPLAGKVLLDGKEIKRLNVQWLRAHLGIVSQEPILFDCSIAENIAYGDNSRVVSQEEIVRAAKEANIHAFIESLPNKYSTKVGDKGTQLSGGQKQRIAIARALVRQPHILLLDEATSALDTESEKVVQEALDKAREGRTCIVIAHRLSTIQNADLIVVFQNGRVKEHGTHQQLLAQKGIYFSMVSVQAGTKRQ
Protocol: The objective of this study was to determine the P-gp substrate potential of one test article using MDR1-MDCK monolayers.
Each determination was performed in duplicate. […] Analytical conditions are outlined in Appendix 1.
Papp=(dCr/dt)×Vr/(A×CA) (1)
Percent Recovery=100×((Vr×Cr^final)+(Vd×Cd^final))/(Vd×CN) (2) • where • dC/dt is the slope of the cumulative concentration in the receiver compartment versus time in μM s^−1; • Vr is the volume of the receiver compartment in cm^3; • Vd is the volume of the donor compartment in cm^3; • A is the area of the insert (1.13 cm^2 for 12-well); • CA is the average of the nominal dosing concentration and the measured 120 minute donor concentration in μM; • CN is the nominal concentration of the dosing solution in μM; • Cr^final is the cumulative receiver concentration in μM at the end of the incubation period; • Cd^final is the concentration of the donor in μM at the end of the incubation period.
Efflux ratio (ER) is defined as Papp (B-to-A)/Papp (A-to-B).

[2] = Brain concentration and brain/plasma ratio in mouse after 10 mg/kg p.o.; format: in vivo; conditions: for concentration at 2 h / concentration at 4 h / concentration at 8 h / concentration at 24 h: po, 10 mg/kg
[3] = brain, PO 10 mg/kg, individual animal R1, read-out: Brain Concentration, R1 + 3n
[4] = brain, PO 10 mg/kg, individual animal R2, read-out: Brain Concentration, R2 + 3n
[5] = brain, PO 10 mg/kg, individual animal R3, read-out: Brain Concentration, R3 + 3n
[6] = brain, PO 10 mg/kg, mean, read-out: Brain Concentration, Mean PO
[7] = plasma, PO 10 mg/kg, individual animal R1, read-out: Plasma Concentration, R1 + 3n
[8] = plasma, PO 10 mg/kg, individual animal R2, read-out: Plasma Concentration, R2 + 3n
[9] = plasma, PO 10 mg/kg, individual animal R3, read-out: Plasma Concentration, R3 + 3n
[10] = plasma, PO 10 mg/kg, mean, read-out: Plasma Concentration, Mean PO

CCN1CCN(Cc2ccc(Nc3ncc(F)c(-c4ccc5nn(C)c(C(C)C)c5c4)n3)nc2)CC1 [Compound 1, N-(5-((4-ethylpiperazin-1-yl)methyl)pyridin-2-yl)-5-fluoro-4-(3-isopropyl-2-methyl-2H-indazol-5-yl)pyrimidin-2-amine]
In vivo efficacy relative to abemaciclib [1]: superior in vivo efficacy
P-gp substrate (P-gp; MDR1-MDCK monolayers, conclusion in words): not a substrate for P-gp
P-gp Substrate Classification (P-gp; MDR1-MDCK, 5 μM, +/− 1 μM valspodar): Negative (ER≥2.0 without valspodar, and reduced by <50% with valspodar: Negative)
recovery at 120 min, 5 μM (P-gp; dog, MDCK-MDR1, pH 7.4, MDR1-MDCK, 5 μM, A-to-B, without valspodar): 22%
Papp A→B at 120 min, 5 μM (P-gp; dog, MDCK-MDR1, pH 7.4, MDR1-MDCK, 5 μM, A-to-B, without valspodar, average, read-out: Papp AVG): 5.34 ×10⁻⁶ cm/s
Papp A→B at 120 min, 5 μM (P-gp; dog, MDCK-MDR1, pH 7.4, MDR1-MDCK, 5 μM, A-to-B, without valspodar, replicate R1, read-out: Papp R1): 5.25 ×10⁻⁶ cm/s
Papp A→B at 120 min, 5 μM (P-gp; dog, MDCK-MDR1, pH 7.4, MDR1-MDCK, 5 μM, A-to-B, without valspodar, replicate R2, read-out: Papp R2): 5.43 ×10⁻⁶ cm/s
recovery at 120 min, 5 μM (P-gp; dog, MDCK-MDR1, pH 7.4, MDR1-MDCK, 5 μM, B-to-A, without valspodar): 51%
Papp B→A at 120 min, 5 μM (P-gp; dog, MDCK-MDR1, pH 7.4, MDR1-MDCK, 5 μM, B-to-A, without valspodar, average, read-out: Papp AVG): 7.77 ×10⁻⁶ cm/s
Papp B→A at 120 min, 5 μM (P-gp; dog, MDCK-MDR1, pH 7.4, MDR1-MDCK, 5 μM, B-to-A, without valspodar, replicate R1, read-out: Papp R1): 7.14 ×10⁻⁶ cm/s
Papp B→A at 120 min, 5 μM (P-gp; dog, MDCK-MDR1, pH 7.4, MDR1-MDCK, 5 μM, B-to-A, without valspodar, replicate R2, read-out: Papp R2): 8.4 ×10⁻⁶ cm/s
recovery at 120 min, 5 μM (P-gp; dog, MDCK-MDR1, pH 7.4, with valspodar 1 μM, MDR1-MDCK, 5 μM, A-to-B, + 1 μM Valspodar): 19%
recovery at 120 min, 5 μM (P-gp; dog, MDCK-MDR1, pH 7.4, with valspodar 1 μM, MDR1-MDCK, 5 μM, B-to-A, + 1 μM Valspodar): 63%
efflux ratio at 120 min, 5 μM (P-gp; dog, pH 7.4, MDR1-MDCK, Papp (B-to-A)/Papp (A-to-B), without valspodar): 1.5
Brain concentration relative to that of abemaciclib ([2]; 10 mg/kg p.o., higher than abemaciclib): approximately 3 fold
Kp ([2]; PO 10 mg/kg, brain AUC0-last / plasma AUC0-last, read-out: AUC0-last Ratio, brain/plasma (B/P) ratio): 1.43
Brain AUC0-last ([2]; PO 10 mg/kg, brain, from mean concentrations): 11966 ng·h/g
AUC(0-t) ([2]; PO 10 mg/kg, plasma, from mean concentrations, read-out: Plasma AUC0-last): 8380 ng·h/mL
concentration at 2 h [2, 3]: 954 ng/g
concentration at 2 h [2, 4]: 630 ng/g
concentration at 2 h [2, 5]: 1100 ng/g
concentration at 2 h [2, 6]: 894 ng/g
concentration at 4 h [2, 3]: 1190 ng/g
concentration at 4 h [2, 4]: 1060 ng/g
concentration at 4 h [2, 5]: 1220 ng/g
concentration at 4 h [2, 6]: 1160 ng/g
concentration at 8 h [2, 3]: 1150 ng/g
concentration at 8 h [2, 4]: 1380 ng/g
concentration at 8 h [2, 5]: 1220 ng/g
concentration at 8 h [2, 6]: 1250 ng/g
concentration at 24 h [2, 3]: 9.06 ng/g
concentration at 24 h [2, 4]: 8.64 ng/g
concentration at 24 h [2, 5]: 15.8 ng/g
concentration at 24 h [2, 6]: 11.2 ng/g
concentration at 2 h [2, 7]: 833 ng/mL
concentration at 2 h [2, 8]: 500 ng/mL
concentration at 2 h [2, 9]: 748 ng/mL
concentration at 2 h [2, 10]: 694 ng/mL
concentration at 4 h [2, 7]: 669 ng/mL
concentration at 4 h [2, 8]: 543 ng/mL
concentration at 4 h [2, 9]: 1180 ng/mL
concentration at 4 h [2, 10]: 797 ng/mL
concentration at 8 h [2, 7]: 868 ng/mL
concentration at 8 h [2, 8]: 1030 ng/mL
concentration at 8 h [2, 9]: 722 ng/mL
concentration at 8 h [2, 10]: 873 ng/mL
concentration at 24 h [2, 7]: 4.36 ng/mL
concentration at 24 h [2, 8]: 5.3 ng/mL
concentration at 24 h [2, 9]: 10.6 ng/mL
concentration at 24 h [2, 10]: 6.75 ng/mL

— patent publication US20220079944A1, “2H-INDAZOLE DERIVATIVES AS THERAPEUTIC AGENTS FOR BRAIN CANCERS AND BRAIN METASTASES” (BETA PHARMA, INC., priority 2019, published 2022)
